These results are taken from patent publication US11884747B2, “Compstatin analogs with increased solubility and improved pharmacokinetic properties” (The Trustees of the University of Pennsylvania, priority 2018, dated 2024).

Data set [1] concerns classical pathway of complement. Kind of data set: Classical pathway complement inhibition ELISA (C3b deposition) in normal human plasma. The data set is classed as biochemical. To be noted: human plasma diluted 1:40; mean of at least three experiments. As for the experimental part: For this purpose, microtiter wells (NUNC) were coated with 50 μl of 1% ovalbumin in PBS (pH 7.4) at ambient temperature for 2 h. The wells were blocked with 200 μl of 1% BSA in PBS for 1 h, then coated with 50 μl of 1:1000 α-ovalbumin polyclonal antibody in PBS for 1 h. Between each step, the plate was washed thrice with 200 μl of 0.05% Tween 20 in PBS (PBS-T); 30 μl of VBS (Veronal buffer 1×; 5 mM veronal, pH 7.4, containing 150 mM NaCl, 0.5 mM CaCl2 and 0.5 mM MgCl2) were placed in all but the first well of each row of the 96-well plate, and 5 μM peptide solutions in VBS were prepared. […] Human plasma diluted 1:40 in VBS was incubated for 15 min with peptide of 0.005 to 2.5 μM. After washing with PBS-T, 50 μl/well of 1:1000 goat a-human C3 HRP conjugated antibody in 1% BSA in PBS was added to the wells and incubated for 1 h at room temperature. Complement fixation indicating activation was detected by the addition of HRP substrate (0.05% ABTS and 0.1% of 30% aqueous H2O2 in 0.1 M sodium citrate, pH 4.2) and read at 405 nm. The absorbance data obtained at 405 nm were translated into % inhibition, considering 100% to be equal to complement activation in the absence of peptide. The percent inhibition was plotted against the logarithm of concentrations, and the resulting data set was fitted to the equation “log(inhibitor) vs. normalized response” using GraphPad Prism 5 (La Jolla, CA). IC50 values were obtained from the fitted parameters of the mean of at least three independent experiments. Cp40 was always used as the internal control.

Setting [2] is: pH adjusted upon addition of PBS.

Where “and” joins values, the source holds several entries; their conditions need not be identical. Equal values may be shown once. Read-outs that look alike come from different tables or passages of the source. Marks after values point to notes of the source that are not given here.

`CC[C@H](C)[C@H](NC(=O)[C@H](N)Cc1ccc(O)cc1)C(=O)N[C@H]1CSSC[C@@H](C(=O)N(C)[C@H](C(=O)N[C@@H](CCCCN)C(=O)N[C@@H](CCCCN)C(=O)N[C@@H](CCCCN)C(N)=O)[C@@H](C)CC)NC(=O)[C@H](CCCNC(=N)N)NC(=O)[C@H](Cc2c[nH]cn2)NC(=O)[C@H](C)NC(=O)CN(C)C(=O)[C@H](Cc2c[nH]c3ccccc23)NC(=O)[C@H](CC(=O)O)NC(=O)[C@H](CCC(N)=O)NC(=O)[C@H](Cc2cn(C)c3ccccc23)NC(=O)[C@H](C(C)C)NC1=O` [Cp40-KKK, DTyr-Ile-[Cys-Val-Trp(Me)-Gln-Asp-Trp-Sar-Ala-His-Arg-Cys]-mlle-Lys-Lys-Lys—NH2] came in with an IC50 in data set [1] of 81.7 ± 5.3 nM. In addition, the pH (after additional lyophilization from H2O) is 9.5 and the pH under setting [2] was 7.5*. The “pH of the peptide solution in PBS” value (at the stated concentration, indicator paper) is reported as 8.5. Under setting [2], the “Conc. (mg/ml) at which pH in the 7 range was observed” value was 7 mg/ml and 7.0 mg/ml.

As usually defined, the IC50 is the point on the concentration scale where inhibition reaches its midpoint. Read a low IC50 as greater potency.
